≈ marks a conversion by molar mass, not a printed value.

Holding throughout (assay): ≥ marks a high value that may be exact or a test limit, other limits are often not marked, values filed in µg/mL are converted to µM
Test [1] deals with Candida albicans ATCC 2002.
Test [2] has as its system Escherichia coli ATCC 25922.
Test [3] concerns Pseudomonas aeruginosa CMCCB 10104.
For test [4], the system named is Staphylococcus aureus ATCC 25923.
The subject of test [5] is Bacillus subtilis ATCC 6633.
For test [6], the system named is Klebsiella pneumoniae ATCC 10031.
For test [7], the system named is Micrococcus luteus ATCC 10240.
Test [8] concerns Pseudomonas aeruginosa ATCC 27853.
Test [9] deals with Salmonella enterica subsp. enterica serovar Typhimurium ATCC 14028.
Test [10] concerns Shigella dysenteriae ATCC 9752.
Test [11] relates to Staphylococcus aureus ATCC 6538P.
The test system of test [12] is Staphylococcus epidermidis ATCC 12228.
Another test has as its system Bacillus subtilis 168.
The next test relates to Escherichia coli K-12.
The subject of test [13] is Pseudomonas aeruginosa PAO1.
The subject of test [14] is Staphylococcus aureus USA 300.
Test [15] deals with Staphylococcus aureus ATCC 6538.

The term MIC denotes the smallest concentration in the dilution series that meets the test's criterion for growth inhibition. Read a low MIC as greater potency. As for `CC[C@H](C)[C@H](NC(=O)[C@H](Cc1ccccc1)NC(=O)[C@H](CCCCN)NC(=O)[C@H](CC(=O)O)NC(=O)[C@@H](NC(=O)[C@H](CC(C)C)NC(=O)[C@H](CC(=O)O)NC(=O)[C@H](CCC(=O)O)NC(=O)[C@H](C)NC(=O)[C@H](CC(=O)O)NC(=O)[C@H](CCC(=O)O)NC(=O)CNC(=O)[C@H](CC(N)=O)NC(=O)[C@H](CCC(=O)O)NC(=O)[C@@H](NC(=O)[C@H](CC(N)=O)NC(=O)[C@H](C)NC(=O)[C@@H](N)CC(=O)O)C(C)C)[C@@H](C)O)C(=O)NCC(=O)N[C@@H](CC(C)C)C(=O)N[C@@H](CCSC)C(=O)NCC(=O)O` [DANVENGEDAEDLTDKFIGLMG], the MIC in test [1] is at least 85 µM; in [2] it was over 85 µM; in test [3], at least 85 µM; in test [4] it was over 85 µM.
For the compound `C[C@H](NC(=O)[C@H](Cc1c[nH]c2ccccc12)NC(=O)[C@H](CCCCN)NC(=O)[C@H](C)NC(=O)[C@@H](N)Cc1ccccc1)C(=O)N[C@@H](Cc1ccccc1)C(=O)N[C@@H](CCCCN)C(=O)N[C@@H](Cc1c[nH]c2ccccc12)C(=O)N[C@@H](C)C(=O)N[C@@H](CCCCN)C(=O)N[C@@H](CCCCN)C(N)=O` [FAKWAFKWAKK], the MIC is 17.7 µM (≈ 25 µg/mL) in [5]; 70.9 µM (≈ 99.9 µg/mL) in test [2]; at least 142 µM in test [6]; 17.7 µM (≈ 25 µg/mL) in test [7]; 142 µM (≈ 200 µg/mL) in test [8]; 142 µM (≈ 200 µg/mL) in test [9]. For the same compound, the MIC in test [10] is at least 35.4 µM; in test [11], at least 70.9 µM; in [12], 70.9 µM (≈ 99.9 µg/mL).
In the case of `CC[C@H](C)[C@H](NC(=O)CN)C(=O)N[C@@H](Cc1ccccc1)C(=O)N[C@@H](CO)C(=O)N[C@@H](CCCCN)C(=O)N[C@H](C(=O)N[C@@H](CO)C(=O)NCC(=O)N[C@@H](CCCCN)C(=O)N[C@@H](C)C(=O)N[C@H](C(=O)N[C@@H](CCCCN)C(=O)N[C@@H](CC(N)=O)C(=O)N[C@@H](CC(C)C)C(=O)N[C@@H](Cc1ccccc1)C(=O)N[C@H](C(=O)N[C@@H](CCCCN)C(=O)NCC(=O)N[C@@H](C)C(=O)N[C@@H](CCCCN)C(=O)N[C@@H](CC(N)=O)C(=O)N[C@H](C(=O)NCC(=O)N[C@@H](CCCCN)C(=O)N[C@@H](CCCN=C(N)N)C(=O)N[C@H](C(=O)NCC(=O)N[C@@H](CCSC)C(=O)N[C@@H](CC(=O)O)C(=O)N[C@H](C(=O)N[C@H](C(=O)N[C@@H](CCCN=C(N)N)C(=O)N[C@H](C(=O)NCC(=O)N[C@@H](CCSC)C(=O)N[C@@H](CC(=O)O)C(=O)N[C@H](C(=O)N[C@H](C(=O)NCC(=O)N[C@H]1CSSC[C@@H](C(=O)O)NC(=O)[C@H](CCC(=O)O)NC(=O)CNC(=O)[C@H](CCCCN)NC(=O)[C@H]([C@@H](C)CC)NC(=O)[C@H](CCCCN)NC1=O)C(C)C)C(C)C)[C@@H](C)O)C(C)C)C(C)C)C(C)C)C(C)C)[C@@H](C)CC)[C@@H](C)CC)[C@@H](C)CC` [GIFSKISGKAIKNLFIKGAKNVGKRVGMDVVRTGMDVVGCKIKGEC], the minimum inhibitory concentration (MIC) in [1] worked out at 2.27 µM (≈ 11 µg/mL); in test [2] it was 1.13 µM (≈ 5.5 µg/mL); in test [3], 2.27 µM (≈ 11 µg/mL); in test [4], 2.27 µM (≈ 11 µg/mL).
For `CC[C@H](C)[C@H](NC(=O)CN)C(=O)N[C@@H](CC(C)C)C(=O)NCC(=O)N[C@@H](CC(N)=O)C(=O)N[C@H](C(=O)N[C@H](C(=O)NCC(=O)N[C@@H](CCSC)C(=O)NCC(=O)N[C@@H](CCCCN)C(=O)N[C@@H](CCCCN)C(=O)N[C@H](C(=O)N[C@H](C(=O)N[C@H]1CSSC[C@@H](C(=O)O)NC(=O)[C@H](CC(C)C)NC(=O)CNC(=O)[C@H](CO)NC(=O)[C@H](CC(C)C)NC(=O)CNC1=O)C(C)C)[C@@H](C)CC)C(C)C)[C@@H](C)CC` [GILGNIVGMGKKIVCGLSGLC], the minimal inhibitory concentration (MIC) in test [1] turned out to be 1.53 µM (≈ 3.1 µg/mL); in test [2], 3.05 µM (≈ 6.19 µg/mL); in [3], 6.1 µM (≈ 12.4 µg/mL); in test [4] it was 3.05 µM (≈ 6.19 µg/mL).
For the compound `CC[C@H](C)[C@H](N)C(=O)N[C@@H](CCCCN)C(=O)N[C@@H](Cc1c[nH]c2ccccc12)C(=O)N[C@@H](CCCCN)C(=O)N[C@@H](CCCCN)C(=O)N[C@@H](CC(C)C)C(=O)N[C@@H](CC(C)C)C(=O)N[C@@H](CCCN=C(N)N)C(=O)N[C@@H](C)C(=O)N[C@@H](C)C(=O)N[C@@H](CCCCN)C(=O)N[C@@H](CCCN=C(N)N)C(=O)N[C@H](C(=O)N[C@@H](CC(C)C)C(N)=O)[C@@H](C)CC` [IKWKKLLRAAKRIL], the minimal inhibitory concentration (MIC) against Bacillus subtilis 168 was determined as 12.5 µM (≈ 21.7 µg/mL); against Escherichia coli K-12, 3.1 µM (≈ 5.38 µg/mL); in test [13], 6.25 µM (≈ 10.9 µg/mL); in test [14], 6.2 µM (≈ 10.8 µg/mL).
Regarding `CC[C@H](C)[C@H](NC(=O)[C@H](CCSC)NC(=O)[C@H](CCCCN)NC(=O)[C@H](CCC(=O)O)NC(=O)[C@H](C)NC(=O)[C@H](CCCCN)NC(=O)[C@H](CCCCN)NC(=O)[C@H](Cc1ccccc1)NC(=O)[C@@H](NC(=O)[C@H](CCCCN)NC(=O)[C@H](Cc1c[nH]c2ccccc12)NC(=O)[C@@H](N)CCCCN)C(C)C)C(=O)N[C@@H](CCCN=C(N)N)C(=O)N[C@@H](CC(N)=O)C(=O)N[C@H](C(=O)N[C@@H](CCCN=C(N)N)C(=O)N[C@@H](CC(N)=O)C(=O)N[C@@H](CCCCN)C(=O)N[C@H](C(=O)N[C@H](C(=O)N[C@@H](CCCCN)C(N)=O)C(C)C)[C@@H](C)CC)[C@@H](C)CC` [KWKVFKKAEKMIRNIRNKIVK], the minimal inhibitory concentration (MIC) with Escherichia coli K-12 is 3 µM (≈ 7.97 µg/mL); in test [8], over 6 µM; in test [15], over 25 µM.
As to `CC(C)C[C@H](NC(=O)[C@H](CCCCN)NC(=O)[C@H](CCCCN)NC(=O)[C@H](CC(C)C)NC(=O)[C@H](Cc1c[nH]c2ccccc12)NC(=O)[C@H](CCCCN)NC(=O)[C@H](CC(C)C)NC(=O)[C@@H](N)CC(C)C)C(N)=O` [LLKWLKKL], the MIC was at least 48 µM in test [5]; 96 µM (≈ 99.9 µg/mL) in [2]; at least 192 µM in test [6]; at least 96 µM in test [7]; 48 µM (≈ 50 µg/mL) in test [8]; over 192 µM in test [9]. For the same compound, the MIC in [10] is at least 192 µM; in [11], 24 µM (≈ 25 µg/mL); in [12], 96 µM (≈ 99.9 µg/mL).
On to `CC[C@H](C)[C@H](NC(=O)[C@@H]1CCCN1C(=O)[C@H](Cc1cnc[nH]1)NC(=O)[C@H](CCCCN)NC(=O)[C@@H]1CCCN1C(=O)[C@@H](N)CCCNC(=N)N)C(=O)N[C@@H](CCCCN)C(=O)N[C@@H](Cc1cnc[nH]1)C(=O)N[C@@H](CCC(N)=O)C(=O)NCC(=O)N[C@@H](CC(C)C)C(=O)N1CCC[C@H]1C(=O)N[C@@H](CCC(N)=O)C(=O)N[C@@H](CCC(=O)O)C(=O)N[C@H](C(=O)N[C@@H](CC(C)C)C(=O)N[C@@H](CC(N)=O)C(=O)N[C@@H](CCC(=O)O)C(=O)N[C@@H](CC(N)=O)C(=O)N[C@@H](CC(C)C)C(=O)N[C@@H](CC(C)C)C(=O)N[C@@H](CCCNC(=N)N)C(=O)N[C@@H](Cc1ccccc1)C(=O)O)C(C)C` [RPKHPIKHQGLPQEVLNENLLRF], for which the MIC (with Escherichia coli K-12; in test [14]) was at least 100 µM in each case.
In the test on Escherichia coli K-12, `CC[C@H](C)[C@H](NC(=O)[C@H](CCCN=C(N)N)NC(=O)[C@H](CCC(N)=O)NC(=O)[C@@H](NC(=O)[C@@H](NC(=O)[C@H](CCCN=C(N)N)NC(=O)[C@@H](N)CCCN=C(N)N)[C@@H](C)CC)C(C)C)C(=O)N[C@@H](CCCN=C(N)N)C(=O)N[C@@H](CC(=O)O)C(=O)N[C@@H](Cc1ccccc1)C(=O)N[C@@H](CC(C)C)C(=O)N[C@@H](CCCN=C(N)N)C(N)=O` [RRIVQRIRDFLR] returned an MIC of 30 µM (≈ 48.8 µg/mL).
